Test system: IL-8 production by TNF-α in ARPE-19
Experiment: Inhibitory effect on IL-8 production by TNF-α from retinal pigment epithelial cells
Format: cell-based, human
Conditions: all-trans form content 50 μM, 16 h, then TNF-α 4 h, FIG. 5, n=3
Source text: Age-related macular degeneration is known to involve the accumulation of drusen under the retinal pigment epithelium. Drusen attract macrophages and macrophages secrete TNF-α. TNF-α acts on the retinal pigment epithelium and its peripheral tissue, and the cells subsequently produce a variety of cytokines and cause inflammation (Mol Vis. 2008 14: 2292-303). Atypical cytokine that is involved in neutrophil migration and spreads inflammation is interleukin-8 (IL-8). In this experiment, the inhibitory effect of GGA on IL-8 production by TNF-α was examined using a human-derived retinal pigment epithelial cell line, ARPE-19. […]
After 4 hours of incubation, 150 μL of the cell culture supernatant was collected and stored at −80° C. […] Then, 100 μL of an equivalent mixture of a cell viability detection reagent Cell Titer-Glo and PBS was added to each well and the luminescence produced by the reaction with ATP in living cells was measured with a luminometer. From the measured luminescence, the cell viability was calculated by the following formula. Cell viability(%)=100×[(luminescence of GGA-treated group)/(luminescence of base-treated group)]
The stored cell culture supernatant was allowed to warm to room temperature, and the IL-8 concentration was quantified with Human CXCL8/IL-8 Quantikine ELISA Kit (R&D Systems). […]

CC(=O)CC/C=C(\C)CC/C=C(\C)CC/C=C(\C)CCC=C(C)C [all-trans form, (5E,9E,13E)-6,10,14,18-tetramethyl-5,9,13,17-nonadecatetrae n-2-one]
inhibitory effect on IL-8 production compared with GGA 6:4: significant inhibitory effect on IL-8 production

From US9724312B2, “Agent for the prevention, improvement or treatment of retinal disease” (ROHTO PHARMACEUTICAL CO., LTD., priority 2012, dated 2017)
